Data on one compound can be found in patent US20200345747A1, “USE OF […] THE TREATMENT OF HEMOLYTIC UREMIC SYNDROME” (priority 2017, published 2020).

Where a name gives a salt, the structure may show the parent alone.

For data set [1], the system named is α2 adrenergic receptors. Particulars: cited from earlier work.
Data set [2] addresses dopamine receptor D1 (Homo sapiens, UniProt P21728). Particulars: cited from earlier work.
Data set [3] is described as follows: Initial treatment of patients with atypical HUS (HUSa) with Fenoldopam. In kind it is in vivo, human.
Data set [4] relates to 5HT2. Particulars: cited from earlier work.
In data set [5] the test system is 5HT1. Particulars: cited from earlier work.
Data set [6] addresses D2 (Homo sapiens, UniProt P14416). Particulars: cited from earlier work.
For data set [7] the following is noted: off-label, doses 10 times lower than the standard dosage; cited from earlier work.
Data set [8] concerns alpha1. The note with it: cited from earlier work.
For data set [9] the following is noted: human, in vivo.
For data set [10], the system named is muscarinic receptors. The note with it: cited from earlier work.

Chain of D2 (P14416 whole entry): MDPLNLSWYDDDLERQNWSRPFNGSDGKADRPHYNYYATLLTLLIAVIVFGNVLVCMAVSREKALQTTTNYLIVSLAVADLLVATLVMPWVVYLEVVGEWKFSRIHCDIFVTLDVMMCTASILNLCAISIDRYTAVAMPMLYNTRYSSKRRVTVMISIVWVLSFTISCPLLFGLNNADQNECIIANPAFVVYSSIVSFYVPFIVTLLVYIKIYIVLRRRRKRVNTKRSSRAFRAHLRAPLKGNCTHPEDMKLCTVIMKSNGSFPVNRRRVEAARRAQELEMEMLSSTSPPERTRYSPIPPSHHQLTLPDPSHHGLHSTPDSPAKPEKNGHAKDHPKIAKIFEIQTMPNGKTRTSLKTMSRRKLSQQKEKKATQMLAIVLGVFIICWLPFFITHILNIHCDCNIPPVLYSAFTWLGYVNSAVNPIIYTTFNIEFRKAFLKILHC
Chain of dopamine receptor D1 (P21728 whole entry, species assumed): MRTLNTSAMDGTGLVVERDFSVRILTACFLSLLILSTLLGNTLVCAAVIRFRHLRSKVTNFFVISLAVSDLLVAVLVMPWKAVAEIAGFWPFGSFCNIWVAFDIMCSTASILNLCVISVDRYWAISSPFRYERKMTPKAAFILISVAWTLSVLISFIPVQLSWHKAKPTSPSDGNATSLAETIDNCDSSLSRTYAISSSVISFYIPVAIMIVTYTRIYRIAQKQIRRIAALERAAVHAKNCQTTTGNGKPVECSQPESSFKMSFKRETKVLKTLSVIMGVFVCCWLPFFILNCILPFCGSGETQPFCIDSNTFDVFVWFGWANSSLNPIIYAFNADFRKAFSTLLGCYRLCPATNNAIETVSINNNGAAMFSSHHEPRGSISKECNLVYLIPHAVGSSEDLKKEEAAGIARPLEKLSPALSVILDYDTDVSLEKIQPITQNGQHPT

In the case of `Oc1ccc(C2CNCCc3c2cc(O)c(O)c3Cl)cc1` (stereo not shown) [Fenoldopam, Fenoldopam mesylate], the “affinity to α2 adrenergic receptors” value in data set [1] was “weak affinity”. Further, the “activity at dopamine receptor D1” value in [2] is “partial agonist”. For the same compound, the “natural course of the disease” value in [3] (three cases of HUSa initially treated, before anti-CS antibody) is “less aggressive”. In addition, the “overall outcome after subsequent specific treatment” value in [3] (three cases of HUSa, pretreated before anti-CS antibody) is on record as “complete relief without permanent injuries”. Also, the “affinity for 5HT2 receptors” value in data set [4] is on record as “does not have any affinity”. For the same compound, the “affinity for 5HT1 receptors” value in data set [5] is “does not have any affinity”. The “affinity for D2 receptors” value in data set [6] is reported as “does not have any affinity”. Further, in [7], the “efficacy in acute renal failure” value is on record as “contrasting efficacy results” and the “side effects in acute renal failure use” value is recorded as “without the observation of any side effects”. For the same compound, the “affinity for alpha1 receptors” value in data set [8] is on record as “does not have any affinity”. Also, in data set [9], the “levels of creatininemia versus control groups” value is “lower (compared with group 1) or equivalent (with group 2)”, the “mean days in dialysis” value is listed as 0.3 (CI: 0-1.1) days, the “neurological effects during the acute phase” value is reported as “None” and the “permanent kidney or other damage” value is given as “None”. Further, in data set [9], the “preservation of kidney function (subjects treated)” value is given as 10 of the 12; the “reduction of the real resistive index, "on" versus "off" therapy” value is −10.8%; the “side effects attributable to treatment” value is given as “none”; the “subjects needing dialytic support during the acute phase of the disease” value came out at 17%. Besides, the “affinity for muscarinic receptors” value in data set [10] is recorded as “does not have any affinity”.
